Source: US10894807B2 (Siemens Medical Solutions USA, Inc., priority 2011, dated 2021)

Target: human PSMA (Homo sapiens (Human), UniProt Q04609)
Test: Enzymatic assay for in vitro evaluation of PSMA inhibitors (fluorescent assay of PSMA activity, NAAG substrate, OPA detection of glutamate)
Type: biochemical

human PSMA, sequence (Q04609 whole entry): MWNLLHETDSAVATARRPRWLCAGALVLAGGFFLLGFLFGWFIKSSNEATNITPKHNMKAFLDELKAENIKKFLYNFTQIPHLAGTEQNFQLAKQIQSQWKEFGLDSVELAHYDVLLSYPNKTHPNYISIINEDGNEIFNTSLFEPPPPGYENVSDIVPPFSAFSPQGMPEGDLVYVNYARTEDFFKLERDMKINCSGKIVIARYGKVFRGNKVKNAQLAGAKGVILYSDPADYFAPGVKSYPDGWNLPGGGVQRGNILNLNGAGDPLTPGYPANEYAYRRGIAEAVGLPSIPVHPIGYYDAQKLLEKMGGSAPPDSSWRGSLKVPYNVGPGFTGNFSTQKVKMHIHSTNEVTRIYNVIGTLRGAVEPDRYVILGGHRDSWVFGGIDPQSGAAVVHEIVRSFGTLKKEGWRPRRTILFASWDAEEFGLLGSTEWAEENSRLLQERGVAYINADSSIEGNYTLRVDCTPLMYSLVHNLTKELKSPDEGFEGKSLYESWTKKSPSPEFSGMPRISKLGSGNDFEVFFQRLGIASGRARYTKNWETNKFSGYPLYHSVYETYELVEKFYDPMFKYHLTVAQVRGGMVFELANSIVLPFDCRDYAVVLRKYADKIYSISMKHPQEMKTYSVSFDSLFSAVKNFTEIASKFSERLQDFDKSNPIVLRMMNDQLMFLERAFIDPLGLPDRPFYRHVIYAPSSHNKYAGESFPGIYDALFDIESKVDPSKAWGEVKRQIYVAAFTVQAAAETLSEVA

| SMILES | Ki [nM] | PSMA Blkg % (1.0 μM) [%] |
| --- | --- | --- |
| NCCOCCOCCOCCOCCn1cc(-c2ccc(C(=O)NCCCC[C@H](NC(=O)N[C@@H](CCC(=O)O)C(=O)O)C(=O)O)cc2)nn1 [P258, (S)-2-(3-((S)-5-(4-(1-(14-Amino-3,6,9,12-tetraoxatetradecyl)-1H-1,2,3-triazol-4-yl)benzamido)-1-carboxypentyl)ureido)pentanedioic Acid] | 41 |  |
| O=C(O)CC[C@H](NC(=O)N[C@@H](CCCCNC(=O)c1cc(C(=O)O)cc(-n2cc(CCCF)nn2)c1)C(=O)O)C(=O)O [P259, (S)-2-(3-((S)-1-Carboxy-5-(3-carboxy-5-(4-(3-fluoropropyl)-1H-1,2,3-triazol-1-yl)benzamido)pentyl)ureido)pentanedioic Acid] |  | 98 |
| CCN(CC)C(=O)c1cc(C(=O)NCCCC[C@H](NC(=O)N[C@@H](CCC(=O)O)C(=O)O)C(=O)O)cc(-n2cc(CCCF)nn2)c1 [P260, (S)-2-(3-((S)-1-Carboxy-5-(3-(diethylcarbamoyl)-5-(4-(3-fluoropropyl)-1H-1,2,3-triazol-1-yl)benzamido)pentyl)ureido)pentanedioic Acid] |  | 81 |
| O=C(O)CC[C@H](NC(=O)N[C@@H](CCCCNC(=O)CC[C@H](NC(=O)Cn1cc(CCCF)nn1)C(=O)NCCCC[C@H](NC(=O)N[C@@H](CCC(=O)O)C(=O)O)C(=O)O)C(=O)O)C(=O)O [P261, (3S,7S,14S,23S,27S)-14-(2-(4-(3-Fluoropropyl)-1H-1,2,3-triazol-1-yl)acetamido)-5,13,17,25-tetraoxo-4,6,12,18,24,26-hexaazanonacosane-1,3,7,23,27,29-hexacarboxylic Acid] | 1 | 98 |
| O=C(O)CC[C@H](NC(=O)N[C@@H](CCCCNC(=O)N1CCN(C(=O)c2cc(C(=O)O)cc(-n3cc(CCCF)nn3)c2)CC1)C(=O)O)C(=O)O [P262, (S)-2-(3-((S)-1-Carboxy-5-(4-(3-carboxy-5-(4-(3-fluoropropyl)-1H-1,2,3-triazol-1-yl)benzoyl)piperazine-1-carboxamido)pentyl)ureido)pentanedioic Acid] |  | 96 |
| O=C(O)CC[C@H](NC(=O)N[C@@H](CCCCNC(=O)N1CCN(C(=O)c2cc(C(=O)N3CCN(C(=O)NCCCC[C@@H](NC(=O)N[C@H](CCC(=O)O)C(=O)O)C(=O)O)CC3)cc(-n3cc(CCCF)nn3)c2)CC1)C(=O)O)C(=O)O [P263, (2S,2′S)-2,2′-(((((1S,1′S)-((4,4′-(5-(4-(3-Fluoropropyl)-1H-1,2,3-triazol-1-yl)-isophthaloyl)bis(piperazine-1,1′-carbonyl))bis(azanediyl))bis(1-carboxypentane-5,1-diyl))bis(azanediyl))bis(carbonyl))bis(azanediyl))dipentanedioic Acid] | 1.3 | 98 |
| CCN(CC)C(=O)c1cc(C(=O)N2CCN(C(=O)NCCCC[C@H](NC(=O)N[C@@H](CCC(=O)O)C(=O)O)C(=O)O)CC2)cc(-n2cc(CCCF)nn2)c1 [P264, (S)-2-(3-((S)-1-Carboxy-5-(4-(3-(diethylcarbamoyl)-5-(4-(3-fluoropropyl)-1H-1,2,3-triazol-1-yl)benzoyl)piperazine-1-carboxamido)pentyl)ureido)pentanedioic Acid] |  | 96 |
| O=C(O)CC[C@H](NC(=O)N[C@@H](CCCCNc1nc(F)ccc1[N+](=O)[O-])C(=O)O)C(=O)O [P265, (S)-2-(3-((S)-1-Carboxy-5-((6-fluoro-3-nitropyridin-2-yl)amino)pentyl)ureido)pentanedioic Acid] |  | 97 |
| O=C(O)CC[C@H](NC(=O)N[C@@H](CCCCNC(=O)c1cc(C(=O)Nc2ccc(C[C@H](NC(=O)N[C@@H](CCC(=O)O)C(=O)O)C(=O)O)cc2)cc(-n2cc(CCCF)nn2)c1)C(=O)O)C(=O)O [P267, (S)-2-(3-((S)-1-Carboxy-2-(4-(3-(((S)-5-carboxy-5-(3-((S)-1,3-dicarboxypropyl)ureido)pentyl)carbamoyl)-5-(4-(3-fluoropropyl)-1H-1,2,3-triazol-1-yl)benzamido)phenyl)ethyl)ureido)pentanedioic Acid] |  | 82 |
| O=C(O)CC[C@H](NC(=O)N[C@@H](CCCCNC(=O)c1cc(C(=O)N[C@@H](CCC(=O)O)C(=O)O)cc(-n2cc(CCCF)nn2)c1)C(=O)O)C(=O)O [P268, (S)-2-(3-((S)-1-Carboxy-5-(3-(((S)-1,3-dicarboxypropyl)carbamoyl)-5-(4-(3-fluoropropyl)-1H-1,2,3-triazol-1-yl)benzamido)pentyl)ureido)pentanedioic Acid] |  | 68 |
| O=C(O)CC[C@H](NC(=O)N[C@@H](CCCCNc1ccc([N+](=O)[O-])c(F)n1)C(=O)O)C(=O)O [P269, (S)-2-(3-((S)-1-Carboxy-5-((6-fluoro-5-nitropyridin-2-yl)amino)pentyl)ureido)pentanedioic Acid] |  | 66 |
| O=C(O)CC[C@H](NC(=O)N[C@@H](CCCCNc1cc(NCCOCCn2cc(CCCF)nn2)ncn1)C(=O)O)C(=O)O [P271, (S)-2-(3-((S)-1-Carboxy-5-((6-((2-(2-(4-(3-fluoropropyl)-1H-1,2,3-triazol-1-yl)ethoxy)ethyl)amino)pyrimidin-4-yl)amino)pentyl)ureido)pentanedioic Acid] | 0.8 | 98 |
| O=C(O)CC[C@H](NC(=O)N[C@@H](CC1CCN(C(=O)c2cc(C(=O)N3CCC(C[C@H](NC(=O)N[C@@H](CCC(=O)O)C(=O)O)C(=O)O)CC3)cc(-n3cc(CCCF)nn3)c2)CC1)C(=O)O)C(=O)O [P272, (S)-2-(3-((S)-1-Carboxy-2-(1-(3-(4-((S)-2-carboxy-2-(3-((S)-1,3-dicarboxypropyl)-ureido)ethyl)piperidine-1-carbonyl)-5-(4-(3-fluoropropyl)-1H-1,2,3-triazol-1-yl)benzoyl)piperidin-4-yl)ethyl)ureido)pentanedioic Acid] | 2.5 | 97 |
| O=C(O)CC[C@H](NC(=O)NC(CCCCNc1nc(NCCN(CCNC(=O)Cn2cc(CCCF)nn2)CCNc2ccc([N+](=O)[O-])c(NCCCCC(NC(=O)N[C@@H](CCC(=O)O)C(=O)O)C(=O)O)n2)ccc1[N+](=O)[O-])C(=O)O)C(=O)O (stereo partly drawn) [P273, (2S,2′S)-2,2′-(((((1S,1′S)-((6,6′-((((2-(2-(4-(3-Fluoropropyl)-1H-1,2,3-triazol-1-yl)acetamido)ethyl)azanediyl)bis(ethane-2,1-diyl))bis(azanediyl))bis(3-nitropyridine-6,2-diyl))bis(azanediyl))bis(1-carboxypentane-5,1-diyl))bis(azanediyl))bis(carbonyl))bis(azanediyl))dipentanedioic Acid] | 0.2 | 97 |
| O=C(O)CC[C@H](NC(=O)N[C@@H](CCCCNC(=O)CC(CC(=O)NCCCC[C@H](NC(=O)N[C@@H](CCC(=O)O)C(=O)O)C(=O)O)NC(=O)Cn1cc(CCCF)nn1)C(=O)O)C(=O)O [P276, (3S,7S,23S,27S)-15-(2-(4-(3-Fluoropropyl)-1H-1,2,3-triazol-1-yl)acetamido)-5,13,17,25-tetraoxo-4,6,12,18,24,26-hexaazanonacosane-1,3,7,23,27,29-hexacarboxylic Acid] | 1.3 |  |
| O=C(O)CC[C@H](NC(=O)N[C@@H](CCc1nc(-c2ccc([N+](=O)[O-])cc2)co1)C(=O)O)C(=O)O [P279, (S)-2-(3-((S)-1-Carboxy-3-(4-(4-nitrophenyl)oxazol-2-yl)propyl)ureido)pentanedioic Acid] | 1.6 |  |
| O=C(O)CC[C@H](NC(=O)N[C@@H](Cc1ccc(NC(=O)CCC(CCC(=O)Nc2ccc(C[C@H](NC(=O)N[C@@H](CCC(=O)O)C(=O)O)C(=O)O)cc2)NC(=O)c2ccc(-n3cc(CCCF)nn3)cc2)cc1)C(=O)O)C(=O)O [P280, (2S,2′S)-2,2′(((((1S,1′S)(((4-(4-(4-(3-Fluoropropyl)-1H-1,2,3-triazol-1-yl)-benzamido)-heptanedioyl)-bis(azanediyl))-bis(4,1-phenylene))-bis(1-carboxyethane-2,1-diyl))-bis(azanediyl))-bis(carbonyl))-bis(azanediyl))-dipentanedioic Acid] | 0.9 |  |
| O=C(O)CC[C@H](NC(=O)N[C@@H](CCCCNC(=O)CCC(CCC(=O)NCCCC[C@H](NC(=O)N[C@@H](CCC(=O)O)C(=O)O)C(=O)O)NC(=O)c1ccc(-n2cc(CCCF)nn2)cc1)C(=O)O)C(=O)O [P282, (3S,7S,25S,29S)-16-(4-(4-(3-Fluoropropyl)-1H-1,2,3-triazol-1-yl)benzamido)-5,13,19,27-tetraoxo-4,6,12,20,26,28-hexaazahentriacontane-1,3,7,25,29,31-hexacarboxylic Acid] | 1.1 |  |
| O=C(O)CC[C@H](NC(=O)N[C@@H](CCCCNC(=O)c1cc(NC(=O)Cn2cc(CCCF)nn2)cc(C(=O)NCCCC[C@H](NC(=O)N[C@@H](CCC(=O)O)C(=O)O)C(=O)O)c1)C(=O)O)C(=O)O [P283, (2S,2′S)-2,2′-(((((1S,1′S)-((5-(2-(4-(3-fluoropropyl)-1H-1,2,3-triazol-1-yl)acetamido)isophthaloyl)bis(azanediyl))bis(1-carboxypentane-5,1-diyl))bis(azanediyl))bis(carbonyl))bis(azanediyl))dipentanedioic Acid] | 0.9 | 98 |
| O=C(O)CC[C@H](NC(=O)N[C@@H](CC1CCN(C(=O)c2cc(C(=O)O)cc(-n3cc(CCCF)nn3)c2)CC1)C(=O)O)C(=O)O [P284, (S)-2-(3-((S)-1-Carboxy-2-(1-(3-carboxy-5-(4-(3-fluoropropyl)-1H-1,2,3-triazol-1-yl)benzoyl)piperidin-4-yl)ethyl)ureido)pentanedioic Acid] |  | 96 |
| O=C(O)CCC(NC(=O)N[C@@H](Cc1ccc(NC(=O)CCC(CCC(=O)Nc2ccc(CC(NC(=O)N[C@@H](CCC(=O)O)C(=O)O)C(=O)O)cc2)(CCC(=O)Nc2ccc(C[C@H](NC(=O)NC(CCC(=O)O)C(=O)O)C(=O)O)cc2)NC(=O)CCCCn2cc(CCCF)nn2)cc1)C(=O)O)C(=O)O (stereo partly drawn) [P285, (2S,2′S)-2,2′-(((((1S,1′S)-(((4-(3-((4-((S)-2-Carboxy-2-(3-((S)-1,3-dicarboxypropyl)ureido)ethyl)phenyl)amino)-3-oxopropyl)-4-(5-(4-(3-fluoropropyl)-1H-1,2,3-triazol-1-yl)pentanamido)heptanedioyl)bis(azanediyl))bis(4,1-phenylene))bis(1-carboxyethane-2,1-diyl))bis(azanediyl))bis(carbonyl))bis(azanediyl))dipentanedioic Acid] | 0.5 |  |
